According to paper doi:10.1101/2022.12.23.521429v4, “Structural perspective on the design of selective DYRK1B inhibitors” (biorxiv, 2025):

Legend:
[1] = target: T1, DYRK1A kinase domain (126-490) (Homo sapiens, UniProt Q13627); experiment: kinase activity assay; assay type: biochemical; details: co-substrate and buffer of the KM determination not told
T1 construct: also printed 124-490 in b15 and 126-489), non-cleavable C-terminal His-tag kept; E. coli LOBSTR; Tyr321 phosphorylated; b63 prints Q9Y463 (swapped with DYRK1B)

[2] = target: T2, DYRK1B kinase domain (78-442) (Homo sapiens, UniProt Q9Y463); experiment: Sypro Orange thermal shift assay; assay type: binding; details: read-out: shift in Tm
T2 construct: kinase domain 78-442, C-terminal TEV site and His-tag (ENLYFQ*GHHHHHH), His-tag cleaved by TEV; E. coli LOBSTR; Tyr273 autophosphorylated

Structure (SMILES) | Km [1] [µM] | ΔTm at 10 µM [2] [°C]
Nc1ncnc2c1ncn2[C@@H]1O[C@H](COP(=O)(O)OP(=O)(O)OP(=O)(O)O)[C@@H](O)[C@H]1O [ATP] | 118 | –
COc1cc(N2CCN(C)CC2)ccc1Nc1nccc(-c2cn(C)c3cnccc23)n1 [AZ191] | – | 12
